What was measured:
Format in all cases: in vivo
[1] = test system: barnyardgrass (Echinochloa crus-galli); experiment: Test G Pre-Emergence Protocol; conditions: Echinochloa crus-galli, pre-emergence, 312 h, evaluated after 13 days
Outline: (§1)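 Visual injury (0–100) at day 13 after a single pre-emergence spray. Rates: 15.625, 62.5, 250 g/ha in acetone–water 50:50 with 0.5% Tween 20. Growth conditions: 24/16° C, 14 h light, 65% humidity.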

[2] = test system: corn (Zea mays); experiment: Test G Pre-Emergence Protocol; conditions: Zea mays, pre-emergence, 312 h, evaluated after 13 days
Outline: as §1

[3] = test system: giant foxtail (Setaria faberi); experiment: Test G Pre-Emergence Protocol; conditions: Setaria faberi, pre-emergence, 312 h, evaluated after 13 days
Outline: as §1

[4] = test system: ivy-leaved morning glory (Ipomoea hederacea); experiment: Test G Pre-Emergence Protocol; conditions: Ipomoea, pre-emergence, 312 h, evaluated after 13 days
Outline: as §1

[5] = test system: redroot pigweed (Amaranthus retroflexus); experiment: Test G Pre-Emergence Protocol; conditions: Amaranthus retroflexus, pre-emergence, 312 h, evaluated after 13 days
Outline: as §1

[6] = test system: velvetleaf (Abutilon theophrasti); experiment: Test G Pre-Emergence Protocol; conditions: Abutilon theophrasti, pre-emergence, 312 h, evaluated after 13 days
Outline: as §1

[7] = test system: barnyardgrass (Echinochloa crus-galli); experiment: Test G Post-Emergence Protocol; conditions: Echinochloa crus-galli, post-emergence, 312 h, read-out: Barnyardgrass damage rating
Outline: (§2)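 Eight days post-sowing, plants received a spray of test compound (acetone/water 50:50, 0.5% Tween 20) at 15.625, 62.5 or 250 g/ha. Glasshouse regime thereafter: 24/16 °C, 14 h light, 65% humidity. Assessment after 13 days on a 0–100 damage scale.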

[8] = test system: corn (Zea mays); experiment: Test G Post-Emergence Protocol; conditions: Zea mays, post-emergence, 312 h, read-out: Corn damage rating
Outline: as §2

[9] = test system: giant foxtail (Setaria faberi); experiment: Test G Post-Emergence Protocol; conditions: Setaria faberi, post-emergence, 312 h, read-out: Foxtail, Giant damage rating
Outline: as §2

[10] = test system: ivy-leaved morning glory (Ipomoea hederacea); experiment: Test G Post-Emergence Protocol; conditions: Ipomoea, post-emergence, 312 h, read-out: Morningglory, Ivy-leaved damage rating
Outline: as §2

[11] = test system: redroot pigweed (Amaranthus retroflexus); experiment: Test G Post-Emergence Protocol; conditions: Amaranthus retroflexus, post-emergence, 312 h, read-out: Pigweed, Redroot damage rating
Outline: as §2

[12] = test system: velvetleaf (Abutilon theophrasti); experiment: Test G Post-Emergence Protocol; conditions: Abutilon theophrasti, post-emergence, 312 h, read-out: Velvetleaf damage rating
Outline: as §2

[13] = 15.625 g ai/ha, evaluated after 13 days (100=total damage to plant; 0=no damage to plant)
[14] = 62.5 g ai/ha, evaluated after 13 days, 100=total damage to plant, 0=no damage to plant
[15] = 250 g ai/ha, evaluated after 13 days, 100=total damage to plant, 0=no damage to plant

Cc1cc(C#N)cc(C2CN(C)C(=O)C2C(=O)Nc2cccc(F)c2F)c1 (centres unmarked) [Compound 1691] gave a pest or weed control at 15.625 g/ha ([1]; 15.625 g ai/ha, read-out: Barnyardgrass damage rating (100=total damage to plant; 0=no damage to plant)) of 20%, a pest or weed control at 62.5 g/ha ([1]; 62.5 g ai/ha, 100=total damage to plant, 0=no damage to plant, read-out: Barnyardgrass damage rating) of 70% and a pest or weed control at 250 g/ha ([1]; 250 g ai/ha, read-out: Barnyardgrass damage rating (100=total damage to plant; 0=no damage to plant)) of 80%. For the same compound, the plant injury at 15.625 g/ha ([2]; 15.625 g ai/ha, read-out: Corn damage rating (100=total damage to plant; 0=no damage to plant)) was 0%, the plant injury at 62.5 g/ha ([2]; 62.5 g ai/ha, 100=total damage to plant, 0=no damage to plant, read-out: Corn damage rating) was 20% and the plant injury at 250 g/ha ([2]; 250 g ai/ha, read-out: Corn damage rating (100=total damage to plant; 0=no damage to plant)) was 80%. For the same compound, the pest or weed control at 15.625 g/ha ([3]; 15.625 g ai/ha, read-out: Foxtail, Giant damage rating (100=total damage to plant; 0=no damage to plant)) was 60%, the pest or weed control at 62.5 g/ha ([3]; 62.5 g ai/ha, 100=total damage to plant, 0=no damage to plant, read-out: Foxtail, Giant damage rating) was 90% and the pest or weed control at 250 g/ha ([3]; 250 g ai/ha, read-out: Foxtail, Giant damage rating (100=total damage to plant; 0=no damage to plant)) was 90%. For the same compound, the pest or weed control at 15.625 g/ha ([4]; 15.625 g ai/ha, read-out: Morningglory, Ivy-leaved damage rating (100=total damage to plant; 0=no damage to plant)) was 0%, the pest or weed control at 62.5 g/ha ([4]; 62.5 g ai/ha, 100=total damage to plant, 0=no damage to plant, read-out: Morningglory, Ivy-leaved damage rating) was 20% and the pest or weed control at 250 g/ha ([4]; 250 g ai/ha, read-out: Morningglory, Ivy-leaved damage rating (100=total damage to plant; 0=no damage to plant)) was 50%. The pest or weed control at 15.625 g/ha ([5]; 15.625 g ai/ha, read-out: Pigweed, Redroot damage rating (100=total damage to plant; 0=no damage to plant)) was 0%, the pest or weed control at 62.5 g/ha ([5]; 62.5 g ai/ha, 100=total damage to plant, 0=no damage to plant, read-out: Pigweed, Redroot damage rating) was 20% and the pest or weed control at 250 g/ha ([5]; 250 g ai/ha, read-out: Pigweed, Redroot damage rating (100=total damage to plant; 0=no damage to plant)) was 30%. It also gave a pest or weed control at 15.625 g/ha ([6]; 15.625 g ai/ha, read-out: Velvetleaf damage rating (100=total damage to plant; 0=no damage to plant)) of 0%, a pest or weed control at 62.5 g/ha ([6]; 62.5 g ai/ha, 100=total damage to plant, 0=no damage to plant, read-out: Velvetleaf damage rating) of 40% and a pest or weed control at 250 g/ha ([6]; 250 g ai/ha, read-out: Velvetleaf damage rating (100=total damage to plant; 0=no damage to plant)) of 60%. For the same compound, the pest or weed control at 15.625 g/ha [7, 13] was 30%, the pest or weed control at 62.5 g/ha [7, 14] was 70% and the pest or weed control at 250 g/ha [7, 15] was 70%. It also gave a plant injury at 15.625 g/ha [8, 13] of 0%, a plant injury at 62.5 g/ha [8, 14] of 0% and a plant injury at 250 g/ha [8, 15] of 70%. It also gave a pest or weed control at 15.625 g/ha [9, 13] of 60%, a pest or weed control at 62.5 g/ha [9, 14] of 80% and a pest or weed control at 15.625 g/ha [10, 13] of 0%. It also gave a pest or weed control at 62.5 g/ha [10, 14] of 60%, a pest or weed control at 250 g/ha [10, 15] of 30% and a pest or weed control at 15.625 g/ha [11, 13] of 0%. The pest or weed control at 62.5 g/ha [11, 14] was 0%, the pest or weed control at 250 g/ha [11, 15] was 0% and the pest or weed control at 15.625 g/ha [12, 13] was 0%. It also gave a pest or weed control at 62.5 g/ha [12, 14] of 10% and a pest or weed control at 250 g/ha [12, 15] of 20%.

— patent US12077503B2, “Substituted cyclic amides and their use as herbicides” (FMC CORPORATION, priority 2015, dated 2024)
